Reference: PMC6934184, “Selective DNA-PKcs inhibition extends the therapeutic index of localized radiotherapy and chemotherapy” (The Journal of Clinical Investigation, 2019)

Biological target: T1, ROS1 (Homo sapiens, UniProt P08922)
T1 construct: purchased Thermo Fisher Scientific (Life Technologies) SelectScreen
Assay: SelectScreen Z'LYTE
Format: biochemical
Summary of the method: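 Percent values come from Thermo SelectScreen profiling of NU5455, combining activity and binding assays. CSF1R was run in Z'LYTE format at Km app ATP, and CAMK1 in Adapta format with ATP listed at 10.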

T1 sequence (P08922 28-2347): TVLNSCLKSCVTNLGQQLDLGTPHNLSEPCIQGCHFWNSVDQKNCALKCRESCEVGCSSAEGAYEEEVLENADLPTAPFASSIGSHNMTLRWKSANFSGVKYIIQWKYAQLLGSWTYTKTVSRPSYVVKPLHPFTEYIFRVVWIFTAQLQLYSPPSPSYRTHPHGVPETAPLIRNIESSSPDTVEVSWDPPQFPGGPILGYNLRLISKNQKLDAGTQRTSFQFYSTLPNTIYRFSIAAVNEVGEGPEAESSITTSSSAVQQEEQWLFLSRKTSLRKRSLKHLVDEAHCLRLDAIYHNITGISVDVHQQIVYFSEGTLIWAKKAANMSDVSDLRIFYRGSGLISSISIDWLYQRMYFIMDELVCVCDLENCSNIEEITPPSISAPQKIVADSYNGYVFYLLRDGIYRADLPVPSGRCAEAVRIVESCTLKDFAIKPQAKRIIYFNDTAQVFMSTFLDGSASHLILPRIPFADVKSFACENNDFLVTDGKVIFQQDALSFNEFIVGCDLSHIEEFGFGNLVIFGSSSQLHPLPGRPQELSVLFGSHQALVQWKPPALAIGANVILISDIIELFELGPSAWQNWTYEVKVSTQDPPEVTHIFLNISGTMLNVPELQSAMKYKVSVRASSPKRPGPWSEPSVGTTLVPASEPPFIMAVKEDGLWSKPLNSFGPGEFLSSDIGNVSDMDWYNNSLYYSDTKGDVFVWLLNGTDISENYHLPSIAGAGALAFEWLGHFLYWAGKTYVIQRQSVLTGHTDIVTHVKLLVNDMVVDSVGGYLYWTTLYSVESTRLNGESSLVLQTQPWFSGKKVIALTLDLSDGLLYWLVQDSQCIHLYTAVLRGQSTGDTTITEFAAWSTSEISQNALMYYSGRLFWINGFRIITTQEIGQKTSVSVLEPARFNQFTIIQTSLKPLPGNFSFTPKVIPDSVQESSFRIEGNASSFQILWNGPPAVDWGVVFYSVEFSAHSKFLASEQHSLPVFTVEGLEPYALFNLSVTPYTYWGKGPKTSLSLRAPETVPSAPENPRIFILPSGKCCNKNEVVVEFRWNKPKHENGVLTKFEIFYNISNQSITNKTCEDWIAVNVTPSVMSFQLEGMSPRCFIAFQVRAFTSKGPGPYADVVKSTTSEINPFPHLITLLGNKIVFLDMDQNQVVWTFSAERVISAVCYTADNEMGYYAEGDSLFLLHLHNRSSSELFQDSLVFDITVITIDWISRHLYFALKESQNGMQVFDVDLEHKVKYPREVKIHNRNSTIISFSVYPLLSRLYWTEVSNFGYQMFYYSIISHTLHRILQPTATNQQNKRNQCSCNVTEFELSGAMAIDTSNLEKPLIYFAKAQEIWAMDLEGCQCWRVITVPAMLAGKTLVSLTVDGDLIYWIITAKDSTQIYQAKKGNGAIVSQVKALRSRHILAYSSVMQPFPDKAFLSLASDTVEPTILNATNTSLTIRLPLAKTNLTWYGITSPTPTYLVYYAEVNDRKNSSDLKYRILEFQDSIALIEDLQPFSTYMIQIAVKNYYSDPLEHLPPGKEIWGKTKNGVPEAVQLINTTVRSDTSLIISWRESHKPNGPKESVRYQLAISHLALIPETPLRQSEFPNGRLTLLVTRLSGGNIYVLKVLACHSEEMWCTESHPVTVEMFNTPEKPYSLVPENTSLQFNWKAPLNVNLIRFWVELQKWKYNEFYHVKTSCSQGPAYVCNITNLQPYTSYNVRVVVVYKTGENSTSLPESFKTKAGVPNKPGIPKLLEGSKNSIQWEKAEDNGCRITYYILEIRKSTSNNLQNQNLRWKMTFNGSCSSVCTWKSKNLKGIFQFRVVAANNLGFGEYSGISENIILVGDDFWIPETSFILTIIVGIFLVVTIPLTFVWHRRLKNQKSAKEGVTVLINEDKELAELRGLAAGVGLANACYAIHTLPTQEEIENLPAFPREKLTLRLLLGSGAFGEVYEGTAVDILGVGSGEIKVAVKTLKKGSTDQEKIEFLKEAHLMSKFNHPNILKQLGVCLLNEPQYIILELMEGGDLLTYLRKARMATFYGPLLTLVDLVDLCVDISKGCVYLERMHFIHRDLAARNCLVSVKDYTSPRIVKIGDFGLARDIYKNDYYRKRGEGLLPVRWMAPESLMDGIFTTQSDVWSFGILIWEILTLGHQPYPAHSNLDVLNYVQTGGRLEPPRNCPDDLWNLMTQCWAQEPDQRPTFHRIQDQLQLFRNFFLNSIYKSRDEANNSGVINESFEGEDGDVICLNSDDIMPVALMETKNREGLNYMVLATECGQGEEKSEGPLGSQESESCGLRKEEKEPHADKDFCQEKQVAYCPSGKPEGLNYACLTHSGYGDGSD

CN(C(=O)CN1CCOCC1)c1ccc2sc3c(-c4cccc5c(=O)cc(N6CC7CCC(C6)O7)oc45)cccc3c2c1 [NU5455]
inhibition at 1 µM: 8%
